Columns and labels:
Assay type in all cases: functional
[1] = tested on: Digitaria sanguinalis; experiment: Herbicidal activity against Digitaria sanguinalis (L.) Scop. at 1.5 kg/hectare administered preemergence of first true leaf measured after 10 days; conditions: pre-emergence, 240 h
[2] = tested on: Botryosphaeria berengeriana; experiment: Fungicidal activity against Physalospora pyricola assessed as inhibition of mycelium growth at 50 mg/L after 72 hrs
[3] = tested on: Alternaria solani; experiment: Fungicidal activity against Alternaria solani assessed as inhibition of mycelium growth at 50 mg/L after 72 hrs
[4] = tested on: Bel-7402; experiment: Antitumor activity against human Bel7402 cells at 100 uM/L after 72 hrs by MTT assay; conditions: Bel-7402, 72 h
[5] = tested on: Cucumis sativus; experiment: Growth regulatory activity in cucumber assessed as root growth at 10 mg/L incubated in dark for 5 days
[6] = tested on: Bel-7402; experiment: Antitumor activity against human Bel7402 cells at 1000 uM/L after 72 hrs by MTT assay; conditions: Bel-7402, 72 h
[7] = tested on: Cladosporium cucumerinum; experiment: Fungicidal activity against Cladosporium cucumerinum assessed as inhibition of mycelium growth at 50 mg/L after 72 hrs
[8] = tested on: Brassica napus; experiment: Herbicidal activity against Brassica napus at 1.5 kg/hectare administered postemergence of first true leaf measured after 10 days; conditions: post-emergence, 240 h
[9] = tested on: Medicago sativa; experiment: Herbicidal activity against Medicago sativa at 1.5 kg/hectare administered preemergence of first true leaf measured after 10 days; conditions: pre-emergence, 240 h
[10] = tested on: Fusarium graminearum; experiment: Fungicidal activity against Gibberella zeae assessed as inhibition of mycelium growth at 50 mg/L after 72 hrs
[11] = tested on: HL-60; experiment: Antitumor activity against human HL60 cells at 10 uM/L after 72 hrs by MTT assay; conditions: HL-60, 72 h
[12] = tested on: Brassica napus; experiment: Herbicidal activity against Brassica napus L. at 1.5 kg/hectare administered preemergence of first true leaf measured after 10 days; conditions: pre-emergence, 240 h
[13] = tested on: Bel-7402; experiment: Antitumor activity against human Bel7402 cells at 10 uM/L after 72 hrs by MTT assay; conditions: Bel-7402, 72 h
[14] = tested on: HL-60; experiment: Antitumor activity against human HL60 cells at 100 uM/L after 72 hrs by MTT assay; conditions: HL-60, 72 h
[15] = tested on: Mycosphaerella arachidis; experiment: Fungicidal activity against Cercospora arachidicola assessed as inhibition of mycelium growth at 50 mg/L after 72 hrs
[16] = tested on: HL-60; experiment: Antitumor activity against human HL60 cells at 1000 uM/L after 72 hrs by MTT assay; conditions: HL-60, 72 h
[17] = tested on: Amaranthus retroflexus; experiment: Herbicidal activity against Amaranthus retroflexus at 1.5 kg/hectare administered preemergence of first true leaf measured after 10 days; conditions: pre-emergence, 240 h
[18] = tested on: Amaranthus retroflexus; experiment: Herbicidal activity against Amaranthus retroflexus at 1.5 kg/hectare administered postemergence of first true leaf measured after 10 days; conditions: post-emergence, 240 h
[19] = tested on: HL-60; experiment: Antitumor activity against human HL60 cells at 1 uM/L after 72 hrs by MTT assay; conditions: HL-60, 72 h
[20] = tested on: Digitaria sanguinalis; experiment: Herbicidal activity against Digitaria sanguinalis at 1.5 kg/hectare administered postemergence of first true leaf measured after 10 days; conditions: post-emergence, 240 h
[21] = tested on: Bel-7402; experiment: Antitumor activity against human Bel7402 cells at 1 uM/L after 72 hrs by MTT assay; conditions: Bel-7402, 72 h
[22] = tested on: Medicago sativa; experiment: Herbicidal activity against Medicago sativa at 1.5 kg/hectare administered postemergence of first true leaf measured after 10 days; conditions: post-emergence, 240 h

SMILES	inhibition at 1500 g/ha [1] [%]	inhibition at 50 µg/mL [2] [%]	inhibition at 50 µg/mL [3] [%]	inhibition at 100 µM [4] [%]	Activity [5] [%]	inhibition at 1000 µM [6] [%]	inhibition at 50 µg/mL [7] [%]	inhibition at 1500 g/ha [8] [%]	inhibition at 1500 g/ha [9] [%]	inhibition at 50 µg/mL [10] [%]	inhibition at 10 µM [11] [%]	inhibition at 1500 g/ha [12] [%]	inhibition at 10 µM [13] [%]	inhibition at 100 µM [14] [%]	inhibition at 50 µg/mL [15] [%]	inhibition at 1000 µM [16] [%]	inhibition at 1500 g/ha [17] [%]	inhibition at 1500 g/ha [18] [%]	inhibition at 1 µM [19] [%]	inhibition at 1500 g/ha [20] [%]	other results
CCOCCOC(=O)/C(C#N)=C(/CC)NNc1cc(Cl)c(Cl)cc1Cl	3.8	36	10	0	-39	94.5	13.9	0	0	9.6	11.8	0	0	7.3	21.3	80.4	5.9	15.6	8.3	0	inhibition at 1 µM [21]: 0%; inhibition at 1500 g/ha [22]: 4.7%
CCOCCOC(=O)/C(C#N)=C(\NNc1ccc(Cl)cc1Cl)C(C)C	3.8	73.3	40	6.5	-27.8	45.9	22.2	1.6	0	4.8	6	0	4.3	17.6	51.5	73.2	0	3.9	0	17.9	inhibition at 1 µM [21]: 5.3%; inhibition at 1500 g/ha [22]: 7.5%
CCOCCOC(=O)/C(C#N)=C(/CC)NNc1c(Cl)cccc1Cl	0	24	10	54.6	-6	79.8	0	11.1	0	0	35.9	5.3	17.1	72.4	24.4	80.4	8.8	22.7	4.3	0	inhibition at 1 µM [21]: 11.5%; inhibition at 1500 g/ha [22]: 2.3%
CCOCCOC(=O)c1c(C(C)C)nn(-c2ccc(Cl)cc2Cl)c1N	0	9.3	28	4.2	-2.4	45.6	30.9	0	0	26.7	4.4	0	0	11.8	44.1	56.8	0	0	4.4	0	inhibition at 1 µM [21]: 5.5%; inhibition at 1500 g/ha [22]: 16.6%
CCOCCOC(=O)/C(C#N)=C(\NNc1c(Cl)cccc1Cl)C(C)C	0	10.7	10	17.3	-6	45.1	0	2.3	0	4.8	7.7	9.9	9.5	21.4	0	73.4	0	15.6	0	0	inhibition at 1 µM [21]: 7.6%; inhibition at 1500 g/ha [22]: 1.4%
CCOCCOC(=O)/C(C#N)=C(\NNc1cccc(Cl)c1Cl)C(C)C	0	66.7	35	19	72.9	49.1	25	0.2	0	14.4	28.7	0	15.1	36.2	36.4	48.8	0	22.7	24.3	16.1	inhibition at 1 µM [21]: 14.7%; inhibition at 1500 g/ha [22]: 5.1%
CCOCCOC(=O)c1c(SC)nn(-c2ccc(C)cc2C)c1N	0	9.3	8	0	42.2	32.9	10.9	24.1	0	46.7	21	0	0	49.9	35.3	43.5	0	0	9.4	0	inhibition at 1 µM [21]: 0%; inhibition at 1500 g/ha [22]: 0%
CCOCCOC(=O)c1c(SC)nn(-c2ccc(Cl)cc2Cl)c1N	0	46.7	16	0	17.8	46.7	32.7	0	0	42.2	8.4	30	0	16.9	47.1	56.1	0	0	4.3	0	inhibition at 1 µM [21]: 0%; inhibition at 1500 g/ha [22]: 0%
CCOCCOC(=O)c1c(CC)nn(-c2ccc([N+](=O)[O-])cc2)c1N	0	40	8	0	5.6	45.2	36.4	15	0	11.1	1.3	0	0	13.1	39.2	41.5	0	0	0.8	0	inhibition at 1 µM [21]: 0%; inhibition at 1500 g/ha [22]: 0%
CCOCCOC(=O)/C(C#N)=C(\NNc1cc(Cl)c(Cl)cc1Cl)C(C)C	0	26.7	10	0	-1.5	96.9	16.7	5	0	14.4	23.4	0	0	1.5	18.2	81.1	5.9	20.3	7.1	0	inhibition at 1 µM [21]: 0%; inhibition at 1500 g/ha [22]: 3.7%
CCOCCOC(=O)/C(C#N)=C(/CC)NNc1ccc(Cl)cc1Cl	0	76	40	0	-5.2	0	38.9	0	0	28.6	0	0	0	0	51.5	57.2	0	18	0	0	inhibition at 1 µM [21]: 0%; inhibition at 1500 g/ha [22]: 0%

Source: ChEMBL document CHEMBL1136896, “Synthesis and biological evaluation of arylhydrazinocyanoacrylates and N-aryl pyrazolecarboxylates” (2009)
